Measured values published in the NIST ThermoML archive (doi:10.1016/j.jct.2013.01.013).
± gives the expanded uncertainty stated by the source.

Assay: xn = mol fraction of the nth substance listed
Settings: 101 kPa, Liquid; for viscosity: Capillary tube (Ostwald / Ubbelohde) method; for speed of sound: Linear variable-path acoustic interferometer; for mass density: Pycnometric method

C=C(C)C(=O)OC [methyl methacrylate] + CN(C)C=O
Settings | mass density [kg/m3] | speed of sound [m/s] | viscosity [mPa·s]
288.15 K, x1 = 0.0696 | 953.35 ± 0.29 | 1484.1 ± 1.6 | 0.905 ± 0.0078
288.15 K, x1 = 0.1417 | 953.07 ± 0.29 | 1464.4 ± 1.6 | 0.868 ± 0.0075
288.15 K, x1 = 0.211 | 952.8 ± 0.29 | 1445.5 ± 1.6 | 0.8355 ± 0.0072
288.15 K, x1 = 0.2855 | 952.5 ± 0.28 | 1425.2 ± 1.6 | 0.8041 ± 0.007
288.15 K, x1 = 0.3573 | 952.22 ± 0.28 | 1405.4 ± 1.6 | 0.7765 ± 0.0067
288.15 K, x1 = 0.4308 | 951.91 ± 0.28 | 1384.8 ± 1.6 | 0.7513 ± 0.0065
288.15 K, x1 = 0.5042 | 951.58 ± 0.27 | 1363.9 ± 1.5 | 0.729 ± 0.0064
288.15 K, x1 = 0.578 | 951.23 ± 0.27 | 1342.6 ± 1.5 | 0.7083 ± 0.0062
288.15 K, x1 = 0.6552 | 950.86 ± 0.27 | 1320 ± 1.5 | 0.6885 ± 0.006
288.15 K, x1 = 0.7204 | 950.53 ± 0.27 | 1300.7 ± 1.5 | 0.6742 ± 0.0059
288.15 K, x1 = 0.7873 | 950.19 ± 0.26 | 1280.7 ± 1.5 | 0.6612 ± 0.0058
288.15 K, x1 = 0.8548 | 949.84 ± 0.26 | 1260.4 ± 1.4 | 0.6505 ± 0.0057
288.15 K, x1 = 0.9268 | 949.47 ± 0.26 | 1238.7 ± 1.4 | 0.6417 ± 0.0056
288.15 K, x1 = 1 | 949.1 ± 0.26 | 1216.8 ± 1.4 | 0.634 ± 0.0056
293.15 K, x1 = 0.0696 | 948.76 ± 0.28 | 1466.8 ± 1.6 | 0.834 ± 0.0072
293.15 K, x1 = 0.1417 | 948.39 ± 0.28 | 1447.2 ± 1.6 | 0.8009 ± 0.007
293.15 K, x1 = 0.211 | 948.03 ± 0.27 | 1428.4 ± 1.6 | 0.7713 ± 0.0067
293.15 K, x1 = 0.2855 | 947.64 ± 0.27 | 1408.2 ± 1.6 | 0.742 ± 0.0065
293.15 K, x1 = 0.3573 | 947.25 ± 0.27 | 1388.5 ± 1.6 | 0.717 ± 0.0063
293.15 K, x1 = 0.4308 | 946.85 ± 0.26 | 1368 ± 1.5 | 0.6941 ± 0.0061
293.15 K, x1 = 0.5042 | 946.43 ± 0.26 | 1347.2 ± 1.5 | 0.6736 ± 0.0059
293.15 K, x1 = 0.578 | 946 ± 0.26 | 1326 ± 1.5 | 0.6552 ± 0.0058
293.15 K, x1 = 0.6552 | 945.53 ± 0.26 | 1303.5 ± 1.5 | 0.6382 ± 0.0057
293.15 K, x1 = 0.7204 | 945.13 ± 0.25 | 1284.3 ± 1.5 | 0.6261 ± 0.0056
293.15 K, x1 = 0.7873 | 944.72 ± 0.25 | 1264.4 ± 1.4 | 0.6149 ± 0.0055
293.15 K, x1 = 0.8548 | 944.29 ± 0.25 | 1244.1 ± 1.4 | 0.6055 ± 0.0054
293.15 K, x1 = 0.9268 | 943.83 ± 0.25 | 1222.5 ± 1.4 | 0.598 ± 0.0053
293.15 K, x1 = 1 | 943.37 ± 0.25 | 1200.5 ± 1.4 | 0.5903 ± 0.0053
298.15 K, x1 = 0.0696 | 944.17 ± 0.29 | 1450 ± 1.6 | 0.7818 ± 0.0068
298.15 K, x1 = 0.1417 | 943.71 ± 0.29 | 1430.6 ± 1.6 | 0.7509 ± 0.0066
298.15 K, x1 = 0.211 | 943.26 ± 0.28 | 1411.8 ± 1.6 | 0.7233 ± 0.0064
298.15 K, x1 = 0.2855 | 942.77 ± 0.28 | 1391.5 ± 1.6 | 0.6958 ± 0.0062
298.15 K, x1 = 0.3573 | 942.29 ± 0.28 | 1371.8 ± 1.5 | 0.672 ± 0.006
298.15 K, x1 = 0.4308 | 941.79 ± 0.27 | 1351.3 ± 1.5 | 0.651 ± 0.0058
298.15 K, x1 = 0.5042 | 941.28 ± 0.27 | 1330.4 ± 1.5 | 0.632 ± 0.0056
298.15 K, x1 = 0.578 | 940.76 ± 0.27 | 1309.2 ± 1.5 | 0.6151 ± 0.0055
298.15 K, x1 = 0.6552 | 940.21 ± 0.27 | 1286.7 ± 1.5 | 0.6 ± 0.0054
298.15 K, x1 = 0.7204 | 939.73 ± 0.26 | 1267.4 ± 1.4 | 0.5885 ± 0.0053
298.15 K, x1 = 0.7873 | 939.24 ± 0.26 | 1247.4 ± 1.4 | 0.5786 ± 0.0052
298.15 K, x1 = 0.8548 | 938.74 ± 0.26 | 1227.1 ± 1.4 | 0.57 ± 0.0051
298.15 K, x1 = 0.9268 | 938.19 ± 0.26 | 1205.3 ± 1.4 | 0.5625 ± 0.0051
298.15 K, x1 = 1 | 937.63 ± 0.25 | 1183.6 ± 1.4 | 0.5544 ± 0.005
303.15 K, x1 = 0.0696 | – | 1430.3 ± 1.6 | 0.737 ± 0.0065
303.15 K, x1 = 0.1417 | – | 1411.3 ± 1.6 | 0.7088 ± 0.0063
303.15 K, x1 = 0.211 | – | 1393 ± 1.6 | 0.683 ± 0.0061
303.15 K, x1 = 0.2855 | – | 1373.1 ± 1.6 | 0.6568 ± 0.0059
303.15 K, x1 = 0.3573 | – | 1353.7 ± 1.5 | 0.6346 ± 0.0057
303.15 K, x1 = 0.4308 | – | 1333.6 ± 1.5 | 0.6148 ± 0.0055
303.15 K, x1 = 0.5042 | – | 1313.1 ± 1.5 | 0.5972 ± 0.0054
303.15 K, x1 = 0.578 | – | – | 0.5817 ± 0.0053
303.15 K, x1 = 0.6552 | – | – | 0.5675 ± 0.0051
303.15 K, x1 = 0.7204 | – | – | 0.5575 ± 0.0051
303.15 K, x1 = 0.7873 | – | – | 0.5486 ± 0.005
303.15 K, x1 = 0.8548 | – | – | 0.5408 ± 0.0049
303.15 K, x1 = 0.9268 | – | – | 0.5331 ± 0.0048
303.15 K, x1 = 1 | – | – | 0.5251 ± 0.0048
